Reference: patent US20080139551A1, “TUMOR NECROSIS FACTOR ALPHA INHIBITORS AND THEIR USE IN THE TREATMENT OF HUMAN DISEASES” (AVANIR PHARMACEUTICALS, priority 2006, published 2008)

What was measured:
[1] = tested on: TNF-alpha; assay: TNF-alpha production in LPS-challenged mice, assayed by ELISA; type: in vivo; settings: Mus musculus, inhibition of TNF-alpha production, formulated in FS-1, oral gavage; for inhibition at 10 mg/kg: 10 mpk P.O.
Excerpt: Mice were challenged with LPS to produce TNF-alpha in vivo, and then assayed by ELISA after dosing with or without the TNF-alpha inhibitor (formulated in FS-1 and delivered through oral gavage).

[2] = In vitro incubation with liver microsomes of mouse, metabolite characterisation by HPLC/MS; type: in vitro ADME
Protocol: (§1) Stock solutions of NVP-VAQ996-NX-1 (2 mmol/L) were prepared in DMSO. Alamethicin solution was prepared (0.125 mmol/L) in water. Uridine 5′-diphosphoglucuronic acid (UDPGA) solution (24 mmol/L) was prepared in phosphate buffer 100 mM pH 7.4. In a further experiment 50 mmol/L gluthationic acid reduced (GSH) in phosphate buffer 100 mM pH 7.4 was added as second co-factor.
(§2) For the characterization of in vitro metabolites NVP-VAQ996-NX-1 was incubated at 37° C. for up to 60 minutes with liver microsomes from mouse and human (Table 3).
(§3) 3 μL liver microsomes, containing 20 mg protein/mL, were mixed with 417 μL phosphate buffer, 60 μL alamethicin solution and 60 μL UDPGA. To this reaction mixture 3 μL stock solution (2 mM in DMSO) of NVP-VAQ996-NX-1 was added and pre-incubated for 3 min at 37° C. After pre-incubation, the final reaction was started by addition of 60 μL of the nicotinamide-adenine-dinucleotide-phosphate (NADPH)-regenerating system, containing isocitrate-dehydrogenase (TU/mL), NADP (1 mmol/L), isocitrate (5 mmol/L). After 1 h, the reaction was stopped with 600 μL ice-cold acetonitrile. Experiments were conducted according to a generic protocol. The reaction mixture was stored at −80° C. The final set-up of the in vitro incubation is shown on Table 4.
(§4) Prior to use, the mixture was centrifuged (10000 g, 5 min) and 500 μL of 1 mL supernatant evaporated to dryness. […]

[3] = In vitro incubation with liver microsomes of human, metabolite characterisation by HPLC/MS; type: in vitro ADME
Protocol: as §1, §2, §3, §4

[4] = In vitro incubation in plasma from mice; type: in vitro ADME, Balb/c mice; settings: heparinized mouse plasma, 5 μg/ml, 2 or 24 hrs at 37° C.
Protocol: Heparinized mouse plasma was freshly obtained from Balb/c mice. Samples were incubated with 5 μg/ml NVP-VAQ996 added from a stock solution (1 mg/ml) in DMSO for 2 or 24 hrs at 37° C.
(§5) For protein precipitation, to 100 μL plasma 100 μL ice-cold acetonitrile was added. This procedure was repeated twice during 1 hour and, after centrifugation (10000 g, 5 min), the supernatant was used for further preparation.
(§6) The solvent of the supernatant was evaporated using the Cyclone high speed evaporator (Prolab, Reinach, Switzerland) and the residue reconstituted with water/acetonitrile (95/5; v/v). An aliquot of the final solution was used for the high performance liquid chromatography/mass spectrometry (HPLC/MS) analyses.
The liquid chromatographic separation was performed using an Chorus-220 syringe pump (CS analytics, Beckenried, Switzerland) and a home-made glass capillary column, 150 mm×0.3 mm, filled with Nucleosil C18-HD, particle size 3.5 μm Gradient mobile phase programming was used with a flow rate of 4.5 μL/min. Eluent A was acetonitrile/water (5/95) 10 mM HCOONH4+0.02% trifluoroacetic acid (TFA). Eluent B was acetonitrile/methanol/water (9/5/5)+10 mM HCOONH4+0.02% TFA. The mobile phase was held 2 min. isocratic at 5% B, followed by a linear gradient from 15% B to 95% B over 30 min and a 5 min isocratic phase at 95% B. The column temperature was kept at 40° C. […]

[5] = Metabolite identification in plasma after p.o. administration to mice; design: species or system Balb/c mice; settings: in vivo in plasma after p.o. administration of 10 mg/kg to mice
Protocol: Female Balb/c mice (Charles River) were housed under standard conditions with free access to food and drinking water throughout the experiment. The mice (n=4) were treated perorally with 10 mg/kg NVP-VAQ996-NX-1 (at 5 mL/kg) by gavage. At the allotted time points mice blood samples were obtained into heparinized tubes (30 IU/mL). The liver was removed intact, weighed and snap frozen before storage at −70° C. until analyzed.
as §5, §6
The liquid chromatographic separation was performed using an Chorus-220 syringe pump (CS analytics, Beckenried, Switzerland) and a home-made glass capillary column, 150 mm×0.3 mm, filled with Nucleosil C18-HD, particle size 3.5 μm Gradient mobile phase programming was used with a flow rate of 4.5 μL/min. Eluent A was acetonitrile/water (5/95) 10 mM HCOONH4+0.02% trifluoroacetic acid (TFA). […]

SMILES | inhibition at 10 mg/kg [1] | further results
CCOC(=O)c1c(N2CCNCC2)c2ccccc2n(Cc2ccc(F)cc2)c1=O [Compound 101] | 43.4% | –
N#Cc1c(N2CCNCC2)c2ccccc2n(CC(=O)c2ccccc2)c1=O [Compound 102] | 36.5% | –
Cc1ccc2c(c1)c(N1CCNCC1)c(C#N)c(=O)n2CC(=O)c1ccccc1 [Compound 103] | 67.3% | –
Cc1ccc2c(c1)c(N1CCNCC1)c(C#N)c(=O)n2C [Compound 105] | 21% | –
Cn1c(=O)c([N+](=O)[O-])c(N2CCNCC2)c2ccccc21 [Compound 108] | 26.2% | –
CCOC(=O)c1c(N2CCNCC2)c2sccc2n(Cc2cccc(F)c2)c1=O [Compound 113] | – | inhibition at 3 mg/kg ([1]; 3 mg/kg P.O., read-out: % Inhibition (tested at 3 mg/kg)): 84.1%
Cc1ccc2c(c1)c(N1CCN(C)CC1)c(C#N)c(=O)n2CC(=O)c1ccccc1 [Compound 114] | 51.6% | –
CC(=O)N1CCN(c2c(C#N)c(=O)n(CC(=O)c3ccccc3)c3ccc(C)cc23)CC1 [Compound 115] | 41.3% | –
CN1CCN(c2c(C#N)c(=O)n(CC(=O)c3ccccc3)c3ccccc23)CC1 [Compound 116] | 29.4% | –
N#Cc1c(N2CCN(C(=O)c3cccs3)CC2)c2ccccc2n(CC(=O)c2ccccc2)c1=O [NVP-VAQ996-NX] | – | main metabolite ([2]; after in vitro incubation with liver microsomes of mouse): NVP-VAR235-NX; metabolic degradation with liver microsomes ([2]; mouse liver microsomes 0.1 mg/ml, 5 μM, 37° C., up to 60 min): high; main metabolite ([3]; after in vitro incubation with liver microsomes of human): NVP-VAR235-NX; metabolic degradation with liver microsomes ([3]; human liver microsomes 0.1 mg/ml, 5 μM, 37° C., up to 60 min): high; rate of degradation to metabolite ml in plasma [4]: high; main metabolite [5]: NVP-VAR235-NX
